Measurements taken from patent publication US20090169497A1, “Treatment and Prevention of Skin Injury Due to Exposure to Ultraviolet Light” (priority 2007, published 2009).
Entries after “also recorded” stand apart in the source; their conditions may differ.

Key:
SKH-1 mice = assay: Preliminary experiment assessing adverse effects of bucillamine alone in SKH-1 mice; type: in vivo; settings: 20 mg/kg s.c., two doses 24 hours apart, no UVB
Procedure: In order to assess any adverse effects of bucillamine and UV exposure separately, a preliminary experiment was carried out in which SKH-1 mice were either treated with bucillamine (20 mg/kg s.c.) or UVB (230 mJ/cm^2) irradiation. Bucillamine can, for example, be administered intravenously, subcutaneously, intramuscularly or orally. Subcutaneous administration was used because it is a relatively easy route and the least likely to injure the animal during administration. The selection of bucillamine dose and UVB dose was based on previously published studies (13, 19, 21, 22). High dose of UVB (230 mJ/cm^2) was selected to investigate bucillamine effect on acute photodamage. Each group of animals received two doses of bucillamine or UVB, 24 hours apart. […] UVB exposure caused edema, erythema and thickening of the exposed skin.

[1] = test system: UV-exposed skin of SKH-1 hairless mice; assay: Histology of UVB-exposed dorsal skin after bucillamine pre-treatment; type: in vivo
Text: (§1) Animals and treatment for Example 2. Female SKH-1 hairless mice (6 weeks old) were purchased from Charles River Laboratories (Wilmington, Mass.). After their arrival, animals were housed at UCDHSC vivarium under specific pathogen-free conditions according to the National Institutes of Health Animal Care Guidelines under an Institutional protocol reviewed and approved by the Institutional Animal Care and Use Committee (IACUC). Animals were allowed to acclimatize for a week prior to the experiment. Animals were fed Purina chow diet and water ad libitum. Throughout the experimental protocol, the mice were maintained at standard conditions; temperature 24±2° C., relative humidity 50±10%, and 12 hour room light/12 hour dark cycle. Mice were divided into four groups. […] The remaining animals were divided into UV exposure alone (Group 2), UV+saline treatment (Group 3) and UV+bucillamine treatment (Group 4). Mice in groups 2-4 were exposed to two doses of 230 mJ/cm^2 UVB, 24 hours apart. Two hours prior to each UVB exposure, mice in groups 3 and 4 were treated with normal saline (Group 3) or bucillamine at a concentration of 20 mg/kg of body weight (Group 4) subcutaneously. Animals were sacrificed after the last UVB exposure at various time points, and the dorsal skin was surgically removed and used for further analysis.
UVB Source. We employed four FS-40-T-12-UVB sunlamps with UVB spectra 305 Dosimeter (Daavlin, Bryan, Ohio), which emitted about 80% radiation in the range of 280-340 nm with a peak emission at 314 nm as monitored with a SEL 240 photodetector, 103 filter and 1008 diffuser attached to an IL1400A NIST Traceable Radiometer/Photometer from International Light (Newburyport, Mass.). The UVB irradiation doses were also calibrated using an IL1400A radiometer.
Histopathology. Skin samples were fixed in 10% formalin and embedded in paraffin. Vertical sections (4 μm thickness) were cut and mounted on a glass slide, and stained with hematoxylin and eosin followed by microscopic evaluation of the slides. SKH-1 hairless mice were unexposed or irradiated with UVB (230 mJ/cm^2) twice, 24 hours apart. Mice irradiated with UVB were untreated or pre-treated with bucillamine or saline. Skin samples were collected at 6 hours and 24 hours after the last UVB exposure, and processed for histopathological analysis.

p53 [2] = assay: UVB-mediated total p53 induction in skin lysates (immunoblot); type: in vivo, mice; settings: 20 mg/kg s.c. pre-treatment
Text: as §1, with “Animals were sacrificed after the last UVB exposure at various time points, and the dorsal skin was surgically removed and used for further analysis.” left out
(§2) SDS-PAGE and immunoblot analysis. Proteins were analyzed by SDS-PAGE (12% gels) followed by transfer to a polyvinylidene difluoride membrane (0.4 μM) in 25 mM Tris, 192 mM glycine, and 20% methanol at 110 V for 1 hour. […]

p53 [3] = assay: Immunohistochemical analysis of nuclear p53 staining in epidermal keratinocytes; type: in vivo, mice; settings: 24 hours after the last UVB exposure; 20 mg/kg s.c. pre-treatment
Text: as §1, with “at […]” for “at UCDHSC”, “subcutaneously. […] All samples” for “subcutaneously. Animals”, “were coded and evaluated by” for “were sacrificed after the last UVB exposure”, “at least two investigators in a blinded manner. […]” for “at various time points, and the dorsal skin was surgically removed and used for further analysis.”

p53 (Ser15, Ser20) = assay: UVB-induced phosphorylation of p53 at Ser15 and Ser20 in skin (immunoblot); type: in vivo, mice; settings: 20 mg/kg s.c. pre-treatment
Text: as §1, with “Animals were sacrificed after the last UVB exposure at various time points, and the dorsal skin was surgically removed and used for further analysis.” left out
as §2

PUMA = assay: UVB-induced activation of PUMA, downstream target of p53, in skin; type: in vivo, mice; settings: 12 and 24 hours after the last UVB exposure; 20 mg/kg s.c. pre-treatment
Text: as §1, with “Animals were sacrificed after the last UVB exposure at various time points, and the dorsal skin was surgically removed and used for further analysis.” left out
as §2

[4] = test system: ubiquitin proteasomal pathway (UPP) in 8B20 mouse melanoma cells; assay: Ubiquitin immunoblot controls for UPP inhibition in 8B20 cells; type: cell-based; settings: 50 μM, negative control
Procedure: As a positive control of UPP inhibition, we used 8B20 mouse melanoma cells treated with UPP inhibitors MG132 (10 μM) and Lactacystin (10 μM), and as a negative control we used 8B20 cells treated with etoposide (50 μM), a DNA damaging agent.
SDS-PAGE and immunoblot analysis. Proteins were analyzed by SDS-PAGE (12% gels) followed by transfer to a polyvinylidene difluoride membrane (0.4 μM) in 25 mM Tris, 192 mM glycine, and 20% methanol at 110 V for 1 hour. Membranes were blocked overnight in 10 mM Tris-HCl, pH 8.0, 125 mM NaCl, and 0.2% (v/v) Tween 20 containing 5% (w/v) nonfat dry milk (TBST-M5). Immunoblot analysis of the total protein bands were visualized using enhanced chemiluminescence as described by the manufacturer (Pierce Biotechnology, Inc., Rockford, Ill.). Immunoblots were subsequently stripped of antibodies by incubating for 15-20 minutes at 37° C. with Restore Western Stripping Buffer (Pierce Biotechnology, Inc., Rockford, Ill.) and re-probed with β-actin antibody to confirm protein loading. Densitometric analysis of the membranes was performed using GelDoc 200 (Bio-Rad Laboratories, Hercules, Calif.).

[5] = 12 and 24 hours after the last UVB exposure
[6] = 6 hours after the last UVB exposure

CC(C)(S)C(=O)N[C@@H](CS)C(=O)O [bucillamine, N-(2-mercapto-2-methylpropionyl)-L-cysteine]
adverse effects (SKH-1 mice): no adverse effects
UVB-induced erythema of dorsal skin ([1]; 20 mg/kg s.c. 2 h before each of two 230 mJ/cm^2 UVB exposures): attenuated the erythema
UVB-induced inflammation ([1]; 12 and 24 hours after the last UVB exposure, pre-treatment): attenuated the inflammation
epidermal necrosis (histology) ([1]; 6 hours after the last UVB exposure, 20 mg/kg s.c. pre-treatment): epidermal necrosis was less prominent
UV-effects on inflammation (dermal edema, leukocyte infiltration, dilatation of blood vessels) ([1]; 24 hours after the last UVB exposure, 20 mg/kg s.c. pre-treatment): attenuated the UV-effects on inflammation
p53 level (p53 [2]; [5]): further decreased
induction of total p53 (p53 [2]; [6]): attenuated this effect
nuclear p53 staining in epidermal keratinocytes (p53 [3]): diminished this effect
phosphorylation of p53 at Ser15 and Ser20 (p53 (Ser15, Ser20); [5]): further diminished the phosphorylation; also recorded: quick decrease
phosphorylation of p53 at Ser15 and Ser20 (p53 (Ser15, Ser20); [6]): attenuated this effect
activation of PUMA (PUMA): attenuated the activation of PUMA

COc1cc([C@@H]2c3cc4c(cc3[C@@H](O[C@@H]3O[C@@H]5CO[C@@H](C)O[C@H]5[C@H](O)[C@H]3O)[C@H]3COC(=O)[C@H]23)OCO4)cc(OC)c1O [etoposide]
ubiquitin reactive high molecular weight bands (polyubiquitinated species) [4]: no polyubiquitinated species
